The source of these data is US7704525B2, “Lipid microparticles by cryogenic micronization” (Ares Trading S.A., priority 2000, dated 2010).

The series in a line: Partition coefficient octanol/water of Antide. It is filed as physicochemical. Particulars: 24 hours stirring at room temperature, RP-HPLC. How it is done: Partition coefficient: it was determined using octanol as organic phase and water as hydrophilic phase. The two phases were first saturated with each other for 24 hours at room temperature. Antide was then dissolved in the water phase at a concentration well below saturation. An equal volume of organic phase was subsequently added to the water phase and the mixture was kept under stirring for 24 hours at room temperature. Antide concentration in the two phases was determined by RP-HPLC and the partition coefficient was obtained from the ratio between the drug concentration in organic and water phase.
The resulting octanol/water coefficient was 8.56·10^−2

With “N—Ac-D-2-NaI, D-pCiPhe, D-3-Pal, Ser, NicLys, D-NicLys, Leu, Ilys, Pro, D-Ala, NH2 [Antide]”, the octanol/water coefficient is 8.56·10^−2.
